assay: in vitro; conditions: human, hela cells, % viability

With CCc1nc2cc(NC(=O)c3csc(C(C)=O)c3)ccc2n1C [CBK282522] as the molecule, how does the viability at 28.5 h, 10 µM read?
The viability at 28.5 h, 10 µM was 105%.

With Cc1ccc(C)c2c(C)c(C(=O)N3CCC(O)C(C)C3)[nH]c12 (stereo not shown) [CBK282527] as the molecule, how does the viability at 28.5 h, 10 µM read?
Its viability at 28.5 h, 10 µM is 97.4%.

Which viability at 28.5 h, 10 µM does the source give for CCOc1ccc2[nH]c(C(=O)NC3CCCOC3)c(C)c2c1 (stereo not shown) [CBK282529] here?
Its viability at 28.5 h, 10 µM is 113%.

With CCOc1ccc2[nH]c(C(=O)NC3CCCN(C)C3)c(C)c2c1 (stereo not shown) [CBK282530] as the molecule, how does the viability at 28.5 h, 10 µM read?
Its viability at 28.5 h, 10 µM is 109%.

Which viability at 28.5 h, 10 µM does the source give for CC(=O)c1cc(C(=O)N2CCC(O)(c3cccc(C)c3)CC2)cs1 [CBK282531] here?
The viability at 28.5 h, 10 µM was 92.8%.

With Cc1n[nH]c(C)c1CNC(=O)c1[nH]c2c(Cl)cccc2c1C [CBK282534] as the molecule, how does the viability at 28.5 h, 10 µM read?
The viability at 28.5 h, 10 µM was 96%.

For CC(C)c1cc(C(=O)NC(c2ccccc2)c2ccnn2C)n(C)n1 (stereo not shown) [CBK282535], which viability at 28.5 h, 10 µM is on record?
The viability at 28.5 h, 10 µM was 102%.

Which viability at 28.5 h, 10 µM does the source give for CN(Cc1cccc2ncccc12)C(=O)c1cc(C2CC2)nn1C [CBK282537] here?
Its viability at 28.5 h, 10 µM is 108%.

For CC1(C)CC(N(Cc2ccc(F)cc2)Cc2c[nH]cn2)CC(C)(C)N1 [CBK282540], which viability at 28.5 h, 10 µM is on record?
The viability at 28.5 h, 10 µM was 102%.

With COc1ccc2cc(C(=O)NC3CCCN(C)C3)n(C)c2c1 (stereo not shown) [CBK282541] as the molecule, how does the viability at 28.5 h, 10 µM read?
Its viability at 28.5 h, 10 µM is 85.1%.

With CCCN1CCC(CNC(=O)c2cc3ccc(OC)cc3n2C)CC1 [CBK282542] as the molecule, how does the viability at 28.5 h, 10 µM read?
The viability at 28.5 h, 10 µM was 99.9%.

For O=C1CN(C(=O)Cn2c(-c3cccs3)cc3cccnc32)CCN1 [CBK282543], which viability at 28.5 h, 10 µM is on record?
The viability at 28.5 h, 10 µM was 100%.

Which viability at 28.5 h, 10 µM does the source give for COc1ccc2cc(C(=O)NCCn3ccnc3C)n(C)c2c1 [CBK282544] here?
Its viability at 28.5 h, 10 µM is 94.1%.

With COCC(=O)NC1CCN(CC2(c3cccc(F)c3)CCCC2)CC1 [CBK282546] as the molecule, how does the viability at 28.5 h, 10 µM read?
Its viability at 28.5 h, 10 µM is 108%.

Which viability at 28.5 h, 10 µM does the source give for CN1CCCC(NC(=O)Cn2nc(C(F)(F)F)c3c2CCCC3)C1 (stereo not shown) [CBK282548] here?
Its viability at 28.5 h, 10 µM is 101%.

With Cc1[nH]c2c(C(=O)NCCCC3CCOC3)cccc2c1C (stereo not shown) [CBK282551] as the molecule, how does the viability at 28.5 h, 10 µM read?
The viability at 28.5 h, 10 µM was 84.1%.

For O=C(Cn1c(-c2cccs2)cc2cccnc21)NC1CC1 [CBK282552], which viability at 28.5 h, 10 µM is on record?
The viability at 28.5 h, 10 µM was 101%.

For O=C(Cn1c(-c2cccs2)cc2cccnc21)NCC1CC1 [CBK282553], which viability at 28.5 h, 10 µM is on record?
Its viability at 28.5 h, 10 µM is 106%.

Which viability at 28.5 h, 10 µM does the source give for CN(C)CCNC(=O)Cn1c(-c2cccs2)cc2cccnc21 [CBK282555] here?
The viability at 28.5 h, 10 µM was 92.6%.

With COCCCNC(=O)Cn1c(-c2cccs2)cc2cccnc21 [CBK282559] as the molecule, how does the viability at 28.5 h, 10 µM read?
Its viability at 28.5 h, 10 µM is 87.2%.

With Cc1nn(C(C)C)c(C)c1CN1CCN(C2CCCCC2)C(=O)C1 [CBK282562] as the molecule, how does the viability at 28.5 h, 10 µM read?
Its viability at 28.5 h, 10 µM is 109%.

For C[S+]([O-])CCNC(=O)c1cc(-c2cccs2)no1 (stereo not shown) [CBK282563], which viability at 28.5 h, 10 µM is on record?
The viability at 28.5 h, 10 µM was 84.5%.

Which viability at 28.5 h, 10 µM does the source give for CN1CCC(CNC(=O)Cn2ccc3ccc(F)cc32)(N(C)C)CC1 [CBK282569] here?
The viability at 28.5 h, 10 µM was 107%.

Which viability at 28.5 h, 10 µM does the source give for O=C(Cn1ccc2ccc(F)cc21)Nc1cccc(-n2cnnc2)c1 [CBK282570] here?
The viability at 28.5 h, 10 µM was 111%.

With CC(=O)c1csc(NC(=O)Cn2ccc3ccc(F)cc32)n1 [CBK282572] as the molecule, how does the viability at 28.5 h, 10 µM read?
Its viability at 28.5 h, 10 µM is 90.5%.

Which viability at 28.5 h, 10 µM does the source give for CCCN1CCC(CNC(=O)Cn2ccc3ccc(F)cc32)CC1 [CBK282573] here?
The viability at 28.5 h, 10 µM was 88%.

Which viability at 28.5 h, 10 µM does the source give for C=CCC1(CC=C)CCN1C(=O)c1cc(-c2c(C)nn(C)c2C)n[nH]1 [CBK282575] here?
Its viability at 28.5 h, 10 µM is 82.2%.

For Cc1cc2occ(CC(=O)NCc3cc(C4CC4)[nH]n3)c2cc1C [CBK282576], which viability at 28.5 h, 10 µM is on record?
Its viability at 28.5 h, 10 µM is 87.1%.

For CC1(C)CC(N(Cc2c[nH]cn2)Cc2ccccc2F)CC(C)(C)N1 [CBK282579], which viability at 28.5 h, 10 µM is on record?
Its viability at 28.5 h, 10 µM is 92.9%.

For C=Cn1cc(CN2CCC(O)(c3ccccc3C)CC2)c(C)n1 [CBK282580], which viability at 28.5 h, 10 µM is on record?
The viability at 28.5 h, 10 µM was 93.7%.

For C=CCn1cc(CN2CCC(O)(c3ccccc3C)CC2)c(C)n1 [CBK282581], which viability at 28.5 h, 10 µM is on record?
The viability at 28.5 h, 10 µM was 86.5%.

For C=Cn1ncc(CN2CCC(O)(c3ccccc3C)CC2)c1C [CBK282582], which viability at 28.5 h, 10 µM is on record?
Its viability at 28.5 h, 10 µM is 88.6%.

Which viability at 28.5 h, 10 µM does the source give for O=C(O)CCn1c(-c2ccc(F)cc2)cc2cccnc21 [CBK282583] here?
The viability at 28.5 h, 10 µM was 84.4%.

With CCc1cccc2c(CC(=O)NC3CCCOC3)c(C)[nH]c12 (stereo not shown) [CBK282584] as the molecule, how does the viability at 28.5 h, 10 µM read?
Its viability at 28.5 h, 10 µM is 105%.

With C=CCOc1ccc(Cl)cc1C(=O)NCc1c(C)n[nH]c1C [CBK282587] as the molecule, how does the viability at 28.5 h, 10 µM read?
Its viability at 28.5 h, 10 µM is 82.6%.

For CC(=O)NC1CCN(CC2(c3ccccc3F)CCCC2)CC1 [CBK282591], which viability at 28.5 h, 10 µM is on record?
Its viability at 28.5 h, 10 µM is 86.7%.

Which viability at 28.5 h, 10 µM does the source give for C=Cn1cc(CN2CCCN(Cc3cccc(F)c3)CC2)c(C)n1 [CBK282594] here?
The viability at 28.5 h, 10 µM was 98.7%.

— paper PMC12040169 (PLOS Biology, 2025)
